Columns and labels:
[1] = Pharmacokinetic study in beagle dogs; assay type: in vivo
Experimental: Experimental Example 5: Pharmacokinetic study in beagle dogs In this study, male beagle dogs were selected as test animals, and LC-MS/MS was used for quantitatively measuring the drug concentration in plasma of beagle dogs at different time points after intravenous injection or intragastric administration of the compound of formula (I) so as to evaluate the pharmacokinetics of the compound of formula (I) in beagle dogs.
The clear solution of the compound of formula (I) was injected into two beagle dogs of 10-12 kg via the cephalic vein or saphenous vein, and the clear solution of the compound of formula (I) was administered intragastrically to two beagle dogs of 10-12 kg (overnight fasted). The animals were all subjected to approximately […] blood collection each time from peripheral veins at 0.0333, 0.0833, 0.25, 0.5, 1, 2, 4, 6, 8 and 24 h post-dose, and the blood was transferred into commercial centrifuge tubes containing 0.85-1.15 mg of K2 EDTA.2H20 anticoagulant, and plasma was separated by centrifugation at 3000 g for 10 min at 4° C. The plasma concentration was measured by LC-MS/MS, and the relevant pharmacokinetic parameters were calculated using WinNonlinTM Version 6.3 (Pharsight, Mountain View, Calif.), a pharmacokinetic software, with a non-compartmental model linear-log trapezoidal method.

CYP1A2 = molecular target: T1, CYP1A2 (Homo sapiens, UniProt P05177); assay: Inhibition of human liver microsomal CYP1A2 (phenacetin probe); assay type: in vitro ADME; details: human liver microsomes
T1 construct: co-incubated with human liver microsomes; from tissue; host or cells: human liver microsomes
T1 sequence (P05177 1-516): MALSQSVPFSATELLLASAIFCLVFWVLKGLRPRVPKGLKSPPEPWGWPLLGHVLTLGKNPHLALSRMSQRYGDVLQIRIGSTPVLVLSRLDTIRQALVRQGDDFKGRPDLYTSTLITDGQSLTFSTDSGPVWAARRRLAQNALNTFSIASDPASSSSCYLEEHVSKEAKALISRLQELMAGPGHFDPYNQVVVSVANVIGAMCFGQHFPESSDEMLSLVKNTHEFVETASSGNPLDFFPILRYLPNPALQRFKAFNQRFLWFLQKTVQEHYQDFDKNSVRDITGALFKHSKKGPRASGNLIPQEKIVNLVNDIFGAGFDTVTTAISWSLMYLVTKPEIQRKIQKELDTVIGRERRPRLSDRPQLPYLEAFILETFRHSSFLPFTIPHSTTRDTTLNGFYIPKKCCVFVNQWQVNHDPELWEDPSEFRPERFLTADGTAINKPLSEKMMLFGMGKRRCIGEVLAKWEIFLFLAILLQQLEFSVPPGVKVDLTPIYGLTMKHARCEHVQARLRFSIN
Experimental: (§1) Experimental Example 6: Inhibitory effect on activity of isoenzymes (CYP1A2, CYP2C9, CYP2C19, CYP2D6 and CYP3A4) of human liver microsomal cytochrome P450 A total of 5 specific probe substrates of 5 isoenzymes of CYP, namely phenacetin (CYP1A2), diclofenac (CYP2C9), (S)-mephenytoin (CYP2C19), dextromethorphan (CYP2D6) and midazolam (CYP3A4) were each co-incubated with human liver microsomes and the compound of formula (I), and then reduced nicotinamide adenine dinucleotide phosphate (NADPH) was added to initiate the reaction. After the reaction was completed, the samples were treated, and the concentrations of 5 metabolites (acetaminophen, 4′-hydroxydiclofenac, 4′-hydroxymephenytoin, dextrorphan and l′-hydroxymidazolam) generated from the specific substrates were quantitatively detected by lC-MS/MS to calculate the correcnondino- half maximal inhibitory concentrationc (IC50)

CYP3A4 = molecular target: T2, CYP3A4 (Homo sapiens, UniProt P08684); assay: Inhibition of human liver microsomal CYP3A4 (midazolam probe); assay type: in vitro ADME; details: human liver microsomes
T2 construct: co-incubated with human liver microsomes; from tissue; host or cells: human liver microsomes
Experimental: as §1

[2] = tested on: cigarette smoke-induced rat acute lung injury model; assay: Pharmacodynamic study in cigarette smoke-induced rat acute lung injury model; assay type: in vivo, Sprague-Dawley rats; details: rats, atomized 0.05 or 0.15 mg/mL for 30 min daily
Experimental: Experimental Example 7: Pharmacodynamic study in cigarette smoke-induced rat acute lung injury model
Male Sprague-Dawley rats (supplied by Shanghai SLAC Laboratory Animal Co., Ltd.), SPF grade, approximately 200 g.
Procedures • 1. Animals were randomly divided into 6 groups according to body weight after arrival and a one-week acclimation; • 2. On days 1-3 of the experiment, the corresponding compound of each group was atomized for 30 min. Then the animals in the model group and the treatment groups were exposed to cigarette smoke for 1 h, and after a 4-h interval, the animals were exposed to cigarette smoke again for 1 h. Cigarette smoke was given twice daily for 3 consecutive days. The control group animals were exposed to room air; • 3. On day 4 of the experiment, the corresponding compound of each group was atomized for 30 min, and then the animals in the model group and the treatment groups were given the atomized 150 μg/mL LPS for 15 min by inhalation. After 3 h (from the time starting atomization), the animals were exposed to cigarette smoke for 1 h, and then the lung function (Penh and F) of the animals was examined; bronchoalveolar lavage fluid (BALF) was collected for cell counting after the animals were euthanized with CO2. • 4. […]

[3] = intragastric administration 3 mg/kg

T2 sequence (P08684 whole entry): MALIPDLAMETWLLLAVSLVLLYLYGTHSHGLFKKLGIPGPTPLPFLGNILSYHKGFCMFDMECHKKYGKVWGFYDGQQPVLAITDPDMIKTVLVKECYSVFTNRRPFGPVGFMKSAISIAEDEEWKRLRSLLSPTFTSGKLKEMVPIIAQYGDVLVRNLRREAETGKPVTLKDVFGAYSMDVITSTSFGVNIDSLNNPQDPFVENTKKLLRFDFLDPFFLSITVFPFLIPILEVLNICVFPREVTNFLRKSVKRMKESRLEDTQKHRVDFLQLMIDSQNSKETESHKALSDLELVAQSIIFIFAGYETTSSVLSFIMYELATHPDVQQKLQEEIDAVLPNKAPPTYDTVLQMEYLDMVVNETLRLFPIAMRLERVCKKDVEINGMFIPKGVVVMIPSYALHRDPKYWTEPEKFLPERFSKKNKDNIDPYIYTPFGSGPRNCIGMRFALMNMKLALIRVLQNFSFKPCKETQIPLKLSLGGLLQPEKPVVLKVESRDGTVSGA

Area under plasma concentration-time curve (0-inf) [1, 3]: 0.123 µM·h | Peak concentration [1, 3]: 59.4 nM | Time to peak [1, 3]: 0.6 h | Area under plasma concentration-time curve (0-inf) ([1]; intravenous injection 0.5 mg/kg): 0.21 µM·h | IC50 (CYP1A2): ≥ 50 µM | IC50 (CYP3A4): ≥ 50 µM
Compound: CCOc1cc2c(cc1OC)-c1c/c(=N\c3c(C)cc(C)cc3C)n(CCNC(=O)c3c(O)nnn3C)c(=O)n1CC2 [Compound of formula (I)]
Number of white blood cells in the bronchoalveolar lavage fluid ([2]; FIG. 5): effectively reduce | Airway resistance index Penh (Mch challenge pulmonary function test) ([2]; FIG. 6): effectively reduce
